Where two headings read alike, the source gives them in different places.
Assays:
PDE4D2 = PDE4D2 (Homo sapiens (Human), UniProt Q08499); test: Effect of compounds on PDE4D2 activity (fluorescence polarization kit); assay type: biochemical
Experimental: FP was usually represented by mP value.
[formula] • I∥ (S520): fluorescence intensity in parallel direction • I⊥ (P520): fluorescence intensity in perpendicular direction • G: G factor=1
[formula] • mP(sample): mP of the test compound in a reaction well • mP(negative control): mP in the negative control well • mP(positive control): mP in the positive control well
According to the calculated inhibition rate at each concentration, the IC50 value of each compound was calculated by GraphPad Prism 8 software.

PDE4B2 = PDE4B2 (Homo sapiens (Human), UniProt Q07343); test: Effect of compounds on PDE4B2 activity (fluorescence polarization kit)
Sequence of PDE4B2 (Q07343 other isoform, or with tags, fused parts or gaps): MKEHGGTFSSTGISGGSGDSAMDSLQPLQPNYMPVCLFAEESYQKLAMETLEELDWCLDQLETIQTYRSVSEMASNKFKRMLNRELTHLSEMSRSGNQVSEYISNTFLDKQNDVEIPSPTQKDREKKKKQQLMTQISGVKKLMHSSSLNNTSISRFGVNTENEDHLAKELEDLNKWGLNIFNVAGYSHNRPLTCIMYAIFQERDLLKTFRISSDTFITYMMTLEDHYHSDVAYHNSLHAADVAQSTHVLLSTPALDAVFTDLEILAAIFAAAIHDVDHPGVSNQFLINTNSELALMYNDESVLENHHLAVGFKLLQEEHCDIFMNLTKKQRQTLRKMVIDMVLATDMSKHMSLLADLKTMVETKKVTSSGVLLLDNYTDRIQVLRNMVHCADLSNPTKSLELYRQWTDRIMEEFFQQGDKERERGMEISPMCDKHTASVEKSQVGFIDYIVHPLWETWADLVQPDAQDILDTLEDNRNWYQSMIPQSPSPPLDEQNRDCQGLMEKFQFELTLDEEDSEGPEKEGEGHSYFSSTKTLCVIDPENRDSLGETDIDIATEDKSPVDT
Text: [formula] • I∥ (S535): fluorescence intensity in parallel direction • I⊥ (P535): fluorescence intensity in perpendicular direction • G: G factor=1

[1] = system: human peripheral blood mononuclear cells (TNF-α release); test: Inhibition of LPS-induced TNF-α release from human peripheral blood mononuclear cells in vitro; assay type: cell-based; settings: 4 h; for IC50: read-out: Re IC50
Experimental: 5. Detection of Inhibitory Activity of Compounds on the Release of Tumor Necrosis Factor-α (TNF-α) from Human Peripheral Blood Mononuclear Cells Induced by Lipopolysaccharide (LPS) In Vitro
The concentration of hPBMC cells was adjusted to 0.25×10^6 cells/mL with RPMI1640 medium and inoculated into a 96-well plate in an amount of 50000 cells per well. […] Incubation was carried out for 4 h in an incubator at 37° C. and 5% CO2. The cell supernatant was collected, and the content of TNF-α in the supernatant sample was detected by human TNF-α Elisa quantitative test kit (Sino Biological, Cat #KIT10602). The IC50 value was calculated using GraphPad Prism software.

[2] = relative IC50, hPBMC, 100 ng/mL LPS

Sequence of PDE4D2 (Q08499 303-809, change not shown): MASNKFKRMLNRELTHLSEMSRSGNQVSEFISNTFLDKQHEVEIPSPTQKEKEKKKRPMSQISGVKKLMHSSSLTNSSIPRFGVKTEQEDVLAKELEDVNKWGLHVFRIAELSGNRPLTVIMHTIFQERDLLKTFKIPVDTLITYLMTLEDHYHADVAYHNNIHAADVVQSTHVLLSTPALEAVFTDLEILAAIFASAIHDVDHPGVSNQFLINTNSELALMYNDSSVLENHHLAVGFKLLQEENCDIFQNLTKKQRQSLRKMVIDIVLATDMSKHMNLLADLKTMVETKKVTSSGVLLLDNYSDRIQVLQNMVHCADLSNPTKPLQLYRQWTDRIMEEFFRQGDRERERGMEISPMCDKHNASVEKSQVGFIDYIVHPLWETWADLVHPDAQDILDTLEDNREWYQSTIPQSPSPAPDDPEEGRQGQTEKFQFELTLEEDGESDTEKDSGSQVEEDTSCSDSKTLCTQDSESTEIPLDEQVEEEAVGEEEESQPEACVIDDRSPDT

SMILES	IC50 (PDE4D2) [nM]	IC50 (PDE4B2; read-out: PDE4B2 IC50) [nM]	IC50 (PDE4B2) [nM]	further results
[O-][S+]1CCc2nc(N3C[C@@H]4CC(c5ccc(Cl)cc5)=C[C@@H]4C3)nc(NC3CN(CCCF)C3)c21 (single isomer, unassigned) [Compound 24-2]	10 to 50	< 10		
CC#Cc1cnc(C2=CCN(c3nc4c(c(NC(C)(C)COC(N)=O)n3)[S+]([O-])CC4)CC2)nc1 (single isomer, unassigned) [Compound 110-1]				Max inhibition (%) ([1]; hPBMC, 100 ng/mL LPS): 88.09%; IC50 [1, 2]: < 10 nM
CC#Cc1cnc(C2=CCN(c3nc4c(c(NC(C)(C)COC(N)=O)n3)[S+]([O-])CC4)CC2)nc1 (single isomer, unassigned) [Compound 110-2]				Max inhibition (%) ([1]; hPBMC, 100 ng/mL LPS): 74.07%; IC50 [1, 2]: < 10 nM
[O-][S@@+]1CCCc2nc(N3CCN(c4ncc(Cl)cn4)CC3)nc(NC3(CO)CCC3)c21 [Compound 12-2]	10 to 50	< 10		
[O-][S@@+]1CCCc2nc(N3C[C@H]4CN(c5ccc6c(c5)CC6)C[C@H]4C3)nc(NC3(CO)CCC3)c21 [Compound 13-2]	10 to 50	< 10		
[O-][S@@+]1CCCc2nc(N3C[C@H]4CN(c5ncc(Cl)cn5)C[C@H]4C3)nc(NC3(CO)CCC3)c21 [Compound 14-1]	10 to 50	10 to 50		
[O-][S@+]1CCCc2nc(N3C[C@H]4CN(c5ccc(Cl)cc5)C[C@H]4C3)nc(NC3(CO)CCC3)c21 [Compound 15-2]	10 to 50	< 10		
[O-][S@@+]1CCCc2nc(N3CCC=C(c4ccc(Cl)cc4)CC3)nc(NC3(CO)CCC3)c21 [Compound 16-2]	10 to 50	10 to 50		
[O-][S@@+]1CCCc2nc(N3CCC=C(c4ncc(Cl)cn4)CC3)nc(NC3(CO)CCC3)c21 [Compound 17-2]	10 to 50	< 10		
O=C1CCCc2nc(N3CC4=C(CN(c5ncc(Cl)cn5)C4)C3)nc(NC3(CO)CCC3)c21 [Compound 19-1]	10 to 50	< 10		
[O-][S@+]1CCc2nc(N3CC=C(c4ncc(Cl)cn4)CC3)nc(NC3(CO)CCCC3)c21 [Compound 30]	< 10		< 10	
CC(C)(CO)Nc1nc(N2CC=C(c3ncc(Cl)cn3)CC2)nc2c1[S+]([O-])CC2 (stereo not drawn) [Compound 31]	10 to 50		10 to 50	
C#Cc1cnc(C2=CCN(c3nc4c(c(Nc5cccc(F)c5)n3)[S@@+]([O-])CC4)CC2)nc1 [Compound 36-2]	10 to 50	10 to 50		
C#Cc1cnc(C2=CCN(c3nc4c(c(NC5(c6ncc[nH]6)CCC5)n3)[S@+]([O-])CC4)CC2)nc1 [Compound 37]				IC50 ([1]; Homo sapiens, PBMC): 10 to 50 nM; Emax ([1]; Homo sapiens, PBMC, hPBMC, 100 ng/mL LPS, read-out: Max inhibition (%)): 78.3%
NC(=O)OCC1(Nc2nc(N3CC=C(c4ncc(C5CC5)cn4)CC3)nc3c2[S@+]([O-])CC3)CCC1 [Compound 47]	< 10			Max inhibition (%) ([1]; hPBMC, 100 ng/mL LPS): 80.45%; IC50 [1, 2]: < 10 nM
O=S1(=O)CCCc2nc(N3CC=C(c4ncc(Cl)cn4)CC3)nc(NC3(CO)CCC3)c21 [Compound 54]			50 to 100	
NC(=O)OCC1(Nc2nc(N3CCC(c4ncc(Cl)cn4)CC3)nc3c2[S@+]([O-])CC3)CCC1 [Compound 55]			50 to 100	
C#Cc1cnc(N2CCN(c3nc4c(c(NC5(COC(N)=O)CCC5)n3)[S@+]([O-])CC4)CC2)nc1 [Compound 57]	10 to 50		< 10	
NC(=O)OCC1(Nc2nc(N3C[C@H]4CN(c5ccc6c(c5)CC6)C[C@H]4C3)nc3c2[S@+]([O-])CC3)CCC1 [Compound 58]	10 to 50		< 10	
[O-][S@+]1CCc2nc(N3CC4CN(c5ccc6c(c5)CC6)CC4C3)nc(Nc3cccc(S(F)(F)(F)(F)F)c3)c21 (stereo partly drawn) [Compound 75-1]	10 to 50	10 to 50		
CC#Cc1cnc(C2=CCN(c3nc4c(c(NC5(COC(F)F)CCC5)n3)[S@+]([O-])CC4)CC2)nc1 [Compound 92-1]	< 10			Max inhibition (%) ([1]; hPBMC, 100 ng/mL LPS): 69.72%; IC50 [1, 2]: < 10 nM
CC#Cc1cnc(C2=CCN(c3nc4c(c(NC5(COC(F)F)CCC5)n3)[S@@+]([O-])CC4)CC2)nc1 [Compound 92-2]	10 to 50			
C#Cc1ccc(C2=CCN(c3nc4c(c(NC5([C@@H](C)O)CCC5)n3)[S@+]([O-])CC4)CC2)nc1 [Compound 95-1]	< 10	< 10		
C#Cc1ccc(C2=CCN(c3nc4c(c(NC5([C@H](C)O)CCC5)n3)[S@@+]([O-])CC4)CC2)nc1 [Compound 95-4]	< 10	< 10		
C#Cc1cnc(C2=CCN(c3nc4c(c(NC5([C@@H](C)O)CCC5)n3)[S@@+]([O-])CC4)CC2)nc1 [Compound 96-3]	10 to 50	< 10		

SMILES	IC50 (PDE4D2) [nM]	IC50 (PDE4B2; read-out: PDE4B2 IC50) [nM]	IC50 (PDE4B2) [nM]	further results
CC(C)(COC(N)=O)Nc1nc(N2CCC=C(c3ncc(Cl)cn3)CC2)nc2c1[S@+]([O-])CC2 [Compound 102-1]				Max inhibition (%) ([1]; hPBMC, 100 ng/mL LPS): 99.73%; IC50 [1, 2]: 10 to 50 nM
CC(C)(COC(N)=O)Nc1nc(N2CCC=C(c3ncc(Cl)cn3)CC2)nc2c1[S@@+]([O-])CC2 [Compound 102-2]				Max inhibition (%) ([1]; hPBMC, 100 ng/mL LPS): 87.54%; IC50 [1, 2]: < 10 nM
CC(C)(CO)Nc1nc(N2CC=C(c3ccc4c(c3)C[Si](C)(C)C4)CC2)nc2c1[S@+]([O-])CC2 [Compound 107]	10 to 50	10 to 50		
CC(C)(COC(N)=O)Nc1nc(N2CC=C(c3ccc4c(c3)C[Si](C)(C)C4)CC2)nc2c1[S@+]([O-])CC2 [Compound 108]	10 to 50		10 to 50	
CN1C[C@@H](Nc2nc(N3C[C@H]4CN(c5ccc6c(c5)CC6)C[C@H]4C3)nc3c2[S@+]([O-])CC3)CCC1=O [Compound 109-2]	50 to 100	10 to 50		
CC#Cc1cnc2c(c1)OC[C@H]1CN(c3nc4c(c(NC(C)(C)COC(N)=O)n3)[S@+]([O-])CC4)CCN21 [Compound 112-2]	50 to 100	10 to 50		
CC(C)(COC(N)=O)Nc1nc(N2CCN3c4ncc(C5CC5)cc4OC[C@H]3C2)nc2c1[S@+]([O-])CC2 [Compound 113-2]	50 to 100	10 to 50		
CC(C)(COC(N)=O)Nc1nc(N2CC=C(c3ncc(C4CC4)cn3)C2)nc2c1[S@+]([O-])CC2 [Compound 116]	50 to 100		10 to 50	
CC(C)(COC(N)=O)Nc1nc(N2CC=C(c3ncccn3)CC2)nc2c1[S@+]([O-])CC2 [Compound 118]	10 to 50		10 to 50	
Cc1cnc(C2=CCN(c3nc4c(c(NC(C)(C)COC(N)=O)n3)[S@+]([O-])CC4)CC2)nc1 [Compound 122]	10 to 50		10 to 50	
COc1cnc(C2=CCN(c3nc4c(c(NC(C)(C)COC(N)=O)n3)[S@+]([O-])CC4)CC2)nc1 [Compound 124]	10 to 50		10 to 50	
CC(C)(COC(N)=O)Nc1nc(N2CC=C(c3ncc4c(n3)CCC4)CC2)nc2c1[S@+]([O-])CC2 [Compound 125]	10 to 50		10 to 50	
CC(C)(COC(N)=O)Nc1nc(N2CC=C(c3ncc(C4CCC4)cn3)CC2)nc2c1[S@+]([O-])CC2 [Compound 126]	10 to 50		< 10	
CCOc1cnc(C2=CCN(c3nc4c(c(NC(C)(C)COC(N)=O)n3)[S@+]([O-])CC4)CC2)nc1 [Compound 128]	< 10		< 10	
CC(C)c1cnc(C2=CCN(c3nc4c(c(NC(C)(C)COC(N)=O)n3)[S@+]([O-])CC4)CC2)nc1 [Compound 129]	10 to 50		< 10	
CC(C)(COC(N)=O)Nc1nc(N2CC=C(c3ncc(C(F)F)cn3)CC2)nc2c1[S@+]([O-])CC2 [Compound 130]	10 to 50		10 to 50	
CC(C)(COC(N)=O)Nc1nc(N2CC=C(c3ncc4c(n3)CC4)CC2)nc2c1[S@+]([O-])CC2 [Compound 132]	10 to 50		10 to 50	
CC(C)(CC#N)Nc1nc(N2CC=C(c3ncc(C4CC4)cn3)CC2)nc2c1[S@+]([O-])CC2 [Compound 134]	< 10	< 10		
N#CCC1(Nc2nc(N3CC=C(c4ncc(C5CC5)cn4)CC3)nc3c2[S@+]([O-])CC3)CCC1 [Compound 135]	< 10		< 10	
CC(C)(COC(N)=O)Nc1nc(N2CC=C(c3ncc4occc4n3)CC2)nc2c1[S@+]([O-])CC2 [Compound 136]	< 10		< 10	
CC(C)(COC(N)=O)Nc1nc(N2CCC=C(c3ncc(C4CC4)cn3)CC2)nc2c1[S@+]([O-])CC2 [Compound 137]	10 to 50		10 to 50	
CN(C)c1cnc(C2=CCN(c3nc4c(c(NC(C)(C)COC(N)=O)n3)[S@+]([O-])CC4)CC2)nc1 [Compound 138]	10 to 50		10 to 50	
COC(=O)NCC(C)(C)Nc1nc(N2C[C@H]3CC(c4ncc5c(n4)CC5)=C[C@H]3C2)nc2c1[S@+]([O-])CC2 [Compound 139-2]	10 to 50	10 to 50		
COC(=O)NCC(C)(C)Nc1nc(N2CCN3c4ncc(C)cc4OC[C@H]3C2)nc2c1[S@+]([O-])CC2 [Compound 141-1]	10 to 50	10 to 50		
COC(=O)NCC(C)(C)Nc1nc(N2CCN3c4ncc(C)cc4OC[C@@H]3C2)nc2c1[S@+]([O-])CC2 [Compound 141-2]	50 to 100	10 to 50		
